pEC50: −log10 of the molar value.
Columns and labels:
[1] = tested on: mixed cortical neuronal cultures; experiment: neuroprotection against NMDA induced toxicity in mixed cortical neuronal cultures (Trypan Blue Dye Exclusion); format: cell-based, rat (foetal rats); settings: prevention of toxicity by NMDA 500 μM, 20 min exposure, 3 min preincubation, viability after 24 h
Experimental: The efficacy of the compounds of the invention as neuroprotective agents, based upon their ability to prevent EEA induced toxicity in vitro, was evaluated in mixed cortical neuronal cultures, following the method reported below.
Mixed cortical neuronal cultures from foetal rats at 16 days of gestation were prepared as described by Choi (J. Neur. Sci. 7: 357-368, 1987).
Briefly, dissociated cells were plated on poly-L-lysine coated multiwell plates at density of 1*10^5 cells/cm^2 in MEM with Earle's salts supplemented with 21 mM D-glucose, 2 mM L-glutamine, 50 μg/ml Streptomicin, 50 IU Penicillin, 10% Foetal Calf Serum and 10% Horse Serum. Cultures were kept at 37° C., 5% CO2 and survived about 5 weeks. After 7 days in vitro, astrocites proliferation was inhibited by adding 10 μM Cytosine Arabinoside for 48 hours; the medium was subsequently substituted twice a week with a fresh medium without foetal calf serum (Hatley, J. Pharm. and Exp. Ther. 250 (II);752-758, 1989).
Only nature cortical cultures, from 14 DIV on, were used for the study.
Experiments were performed at 25° C. as follows: cells were washed once with a Locke's buffer, (128 mM NaCl, […] KCl, 1.2 mM Na2 HPO4, 2.7 mM CaCl2, 20 mM Hepes and 10 mM D-glucose) pH=7.4, then preincubated with the test compounds for 3 min. followed by a 20 min. exposure to N-methyl-D-aspartate (NMDA) (500 μM).
The incubation was stopped by removing Locke's buffer and substituting the conditioned medium. After 24 hours at 37° C., 5% CO2, Trypan Blue Dye Exclusion Test (0.04%) was used for evaluating the cells viability.

[2] = tested on: focal ischemia in mice (Middle Cerebral Artery occlusion); experiment: antiischemic activity in vivo in the model of focal ischemia in mice (MCA electrocoagulation), infarct volume; set-up: species or system mice (male Swiss CD); settings: male Swiss mice; for Infarct volume: Means ± SEM after MCA occlusion, day 4, 7 mg/Kg i.p. 5 min and 6 h after ischemia, then twice a day on days 2, 3 and 4, saline 20.9 ± 1.7, P < 0.01 from controls
Experimental: The antiischemic activity of the compounds of the present invention was evaluated in vivo in the model of focal ischemia in mice.
Focal ischemia was produced in mice by electrocoagulation of the Middle Cerebral Artery (MCA) according the procedure reported by Welsh et al. (Welsh F A, Sakamoto T, McKee A, Sims R E, J Neurochem: 49: 846-851, 1987). Briefly, male Swiss CD mice (C. River, Milan, Italy) were anesthetised with chloral hydrate (500 mg/Kg i.p.); an incision was made on the temporo-parietal region of the head and a small burr hole was drilled into the lateral outer surface of the skull just over the MCA. The stem of the MCA was occluded by microbipolar coagulation. Animals were maintained under an heating lamp during surgery and for two hours afterwards.
Four days after the occlusion, mice were decapitated and the brains stored a -20° C. until sectioned for histological examination.
Coronal sections (50 μm thick) of the frozen brains were taken every 1.00 mm in order to evaluate the infarct volume.
The slices were stained with cresyl violet and the cortical infarct area of each slice was determined by an image analyzing system (Ibas 20, Kontron, Milan, Italy). Infarct volume was calculated from the infarct area on each slice and the distance between succeeding slices.
The treatment schedule consisted in the administration of the tested compound 5 min and 6 h after ischemia during the first day after surgery and then twice a day on days 2, 3 and 4 according to published data (Gotti B. et al.; Brain Research, 522,290-307, 1990). The tested compounds were given i.p. at the dose of 7 mg/Kg.
Dosing was performed till sacrifice. The time schedule, the doses and the route of administration of the tested compounds were selected on the basis of preliminary experiments.

Structure (SMILES) | pEC50 ([1]; Rattus norvegicus) | other results
OC(CN1CCC(Cc2ccccc2)CC1)c1cc(Br)no1 (racemic) [Compound 1, (±)-2-(4-Benzyl-piperidin-1-yl)-1-(3-bromo-isoxazol-5-yl) -ethan-1-ol] | 5.69 | 
O=C(c1ccc(F)cc1)C1CCN(CC(O)c2cc(Br)no2)CC1 (centres unmarked) [Compound 25, 2-[4-(4-fluoro-benzoyl)piperidin-1-yl]-1-(3-bromo-isoxazol-5-yl)-ethan-1-ol] | 4.66 | 
COc1cc(C(O)CN2CCC(C(=O)c3ccc(F)cc3)CC2)on1 (racemic) [Compound 27, (±)2-[4-(p-Fluoro-benzoyl)-piperidin-1-yl]-1-(3-methoxy-isoxazol-5-yl)-ethan-1-ol] | 6.19 | 
COc1cc(C(O)CN2CCC(Cc3ccccc3)CC2)on1 (racemic) [Compound 3, (±)-2-(4-Benzyl-piperidin-1-yl)-1-(3-methoxy-isoxazol-5-yl)-ethan-1-ol] | 5.48 | Effect on infarct volume compared with saline-treated mice (in words) ([2]; 7 mg/Kg i.p., day 4, versus saline): significantly reduce infarct volume; Infarct volume ([2]; 7 mg/kg): 13.6 ± 1.5 mm^3; Infarct volume ([2]; listed as Example 2, 7 mg/kg): 13.6±1.5 mm^3
ON=C(CN1CCC(Cc2ccccc2)CC1)c1cc(Br)no1 [Compound 17, (±)-2-(4-Benzyl-piperidin-1-yl)-1-(3-bromo-isoxazol-5-yl)-ethan-1-one-oxyme] |  | pEC50 [1]: 5.67
